Data published in ChEMBL document CHEMBL1201862, “PubChem BioAssay data set” (2004).
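Cells were grown in 96-well plates and exposed to each compound for 48 hours at five concentrations; endpoints were interpolated linearly between bracketing concentrations, or set to the highest concentration if not reached. GI50: concentration for 50% inhibition of growth.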 Calls of active or inactive are those of the source. Cut-off read from the data, not from the text of the source: active = GI50 up to about 1.1 µM and inactive = higher.

How the values were obtained:
Assay in all cases: growth of human tumour cells (NCI), 48 h
786-0 = tested on: 786-0
A498 = tested on: A498
A549 = tested on: A549
ACHN = tested on: ACHN
BT-549 = tested on: BT-549
CAKI-1 = tested on: CAKI-1
CCRF-CEM = tested on: CCRF-CEM
COLO 205 = tested on: COLO 205
DU-145 = tested on: DU-145
EKVX = tested on: EKVX
HCC 2998 = tested on: HCC 2998
HCT-116 = tested on: HCT-116
HCT-15 = tested on: HCT-15
HL-60 = tested on: HL-60
HOP-62 = tested on: HOP-62
HOP-92 = tested on: HOP-92
HT-29 = tested on: HT-29
Hs-578T = tested on: Hs-578T
IGROV-1 = tested on: IGROV-1
K562 = tested on: K562
KM12 = tested on: KM12
LOX IMVI = tested on: LOX IMVI
M14 = tested on: M14
MCF7 = tested on: MCF7
MDA-MB-231 = tested on: MDA-MB-231
MDA-MB-435 = tested on: MDA-MB-435
MDA-N = tested on: MDA-N
MOLT-4 = tested on: MOLT-4
Malme-3M = tested on: Malme-3M
NCI-H23 = tested on: NCI-H23
NCI-H460 = tested on: NCI-H460
NCI-H522 = tested on: NCI-H522
NCI/ADR-RES = tested on: NCI/ADR-RES
OVCAR-3 = tested on: OVCAR-3
OVCAR-4 = tested on: OVCAR-4
OVCAR-5 = tested on: OVCAR-5
OVCAR-8 = tested on: OVCAR-8
PC-3 = tested on: PC-3
RPMI-8226 = tested on: RPMI-8226
RXF 393 = tested on: RXF 393
SF-268 = tested on: SF-268
SF-295 = tested on: SF-295
SF-539 = tested on: SF-539
SK-MEL-28 = tested on: SK-MEL-28
SK-MEL-2 = tested on: SK-MEL-2
SK-MEL-5 = tested on: SK-MEL-5
SK-OV-3 = tested on: SK-OV-3
SN12C = tested on: SN12C
SNB-19 = tested on: SNB-19
SNB-75 = tested on: SNB-75
SR = tested on: SR
SW-620 = tested on: SW-620
T47D = tested on: T47D
TK-10 = tested on: TK-10
U-251 = tested on: U-251
UACC-257 = tested on: UACC-257
UACC-62 = tested on: UACC-62
UO-31 = tested on: UO-31
NCI-H226 = tested on: NCI-H226

`CN(Cc1c2ccccc2cc2ccccc12)S(=O)(=O)c1ccc(-c2c3nc(c(-c4ccc(S(=O)(=O)N(C)Cc5c6ccccc6cc6ccccc56)cc4)c4ccc([nH]4)c(-c4ccc(S(=O)(=O)N(C)Cc5c6ccccc6cc6ccccc56)cc4)c4nc(c(-c5ccc(S(=O)(=O)N(C)Cc6c7ccccc7cc7ccccc67)cc5)c5ccc2[nH]5)C=C4)C=C3)cc1` was tested, and the GI50 (786-0) was 53.1 µM (inactive), the GI50 (A498) was > 100 µM (inactive) and the GI50 (A549) was > 100 µM (inactive). For the same compound, the GI50 (ACHN) was > 100 µM (inactive), the GI50 (BT-549) was > 100 µM (inactive) and the GI50 (CAKI-1) was > 100 µM (inactive). The GI50 (CCRF-CEM) was > 100 µM (inactive), the GI50 (COLO 205) was > 100 µM (inactive) and the GI50 (DU-145) was > 100 µM (inactive). The GI50 (EKVX) was > 100 µM (inactive), the GI50 (HCC 2998) was > 100 µM (inactive) and the GI50 (HCT-116) was > 100 µM (inactive). The GI50 (HCT-15) was over 100 µM, the GI50 (HL-60) was > 100 µM (inactive) and the GI50 (HOP-62) was 30.3 µM (inactive). For the same compound, the GI50 (HOP-92) was 29.2 µM (inactive), the GI50 (HT-29) was > 100 µM (inactive) and the GI50 (Hs-578T) was 57.8 µM (inactive). The GI50 (IGROV-1) was > 100 µM (inactive), the GI50 (K562) was > 100 µM (inactive) and the GI50 (KM12) was > 100 µM (inactive). For the same compound, the GI50 (LOX IMVI) was > 100 µM (inactive), the GI50 (M14) was > 100 µM (inactive) and the GI50 (MCF7) was > 100 µM (inactive). The GI50 (MDA-MB-231) was > 100 µM (inactive), the GI50 (MDA-MB-435) was > 100 µM (inactive) and the GI50 (MDA-N) was > 100 µM (inactive). For the same compound, the GI50 (MOLT-4) was > 100 µM (inactive), the GI50 (Malme-3M) was > 100 µM (inactive) and the GI50 (NCI-H23) was > 100 µM (inactive). For the same compound, the GI50 (NCI-H460) was > 100 µM (inactive), the GI50 (NCI-H522) was > 100 µM (inactive) and the GI50 (NCI/ADR-RES) was > 100 µM (inactive). For the same compound, the GI50 (OVCAR-3) was > 100 µM (inactive), the GI50 (OVCAR-4) was > 100 µM (inactive) and the GI50 (OVCAR-5) was > 100 µM (inactive). The GI50 (OVCAR-8) was > 100 µM (inactive), the GI50 (PC-3) was > 100 µM (inactive) and the GI50 (RPMI-8226) was > 100 µM (inactive). The GI50 (RXF 393) was 42.1 µM (inactive), the GI50 (SF-268) was > 100 µM (inactive) and the GI50 (SF-295) was 63.7 µM (inactive). For the same compound, the GI50 (SF-539) was 99.1 µM (inactive), the GI50 (SK-MEL-28) was > 100 µM (inactive) and the GI50 (SK-MEL-2) was > 100 µM (inactive). For the same compound, the GI50 (SK-MEL-5) was > 100 µM (inactive), the GI50 (SK-OV-3) was > 100 µM (inactive) and the GI50 (SN12C) was > 100 µM (inactive). The GI50 (SNB-19) was 44 µM (inactive), the GI50 (SNB-75) was 24.4 µM (inactive) and the GI50 (SR) was > 100 µM (inactive). For the same compound, the GI50 (SW-620) was > 100 µM (inactive), the GI50 (T47D) was > 100 µM (inactive) and the GI50 (TK-10) was > 100 µM (inactive). The GI50 (U-251) was 47.2 µM (inactive), the GI50 (UACC-257) was > 100 µM (inactive) and the GI50 (UACC-62) was > 100 µM (inactive). For the same compound, the GI50 (UO-31) was > 100 µM (inactive).
With `CC(C)CC1c2[nH]c3ccccc3c2C[C@H]2C(=O)NC(CCC(=O)OC(C)(C)C)C(=O)N12` (some centres not stated) the GI50 (786-0) was 43 µM (inactive), the GI50 (A498) was 40.4 µM (inactive) and the GI50 (A549) was 34 µM (inactive). For the same compound, the GI50 (ACHN) was 30.8 µM (inactive), the GI50 (BT-549) was 33.5 µM (inactive) and the GI50 (CAKI-1) was 42.4 µM (inactive). The GI50 (COLO 205) was 20.6 µM (inactive), the GI50 (DU-145) was 47.1 µM (inactive) and the GI50 (EKVX) was 35.2 µM (inactive). The GI50 (HCT-116) was 28.8 µM (inactive), the GI50 (HCT-15) was 33.8 µM and the GI50 (HL-60) was 28.1 µM (inactive). The GI50 (HOP-62) was 23 µM (inactive), the GI50 (HOP-92) was 27.5 µM (inactive) and the GI50 (HT-29) was 21.1 µM (inactive). The GI50 (Hs-578T) was 15.1 µM (inactive), the GI50 (IGROV-1) was 33.5 µM (inactive) and the GI50 (K562) was 36.9 µM (inactive). The GI50 (KM12) was 40.6 µM (inactive), the GI50 (LOX IMVI) was 22.9 µM (inactive) and the GI50 (M14) was 36.7 µM (inactive). The GI50 (MCF7) was 36.9 µM (inactive), the GI50 (MDA-MB-231) was 27.2 µM (inactive) and the GI50 (MDA-MB-435) was 36 µM (inactive). For the same compound, the GI50 (MDA-N) was 30.7 µM (inactive), the GI50 (MOLT-4) was 22.6 µM (inactive) and the GI50 (Malme-3M) was 24.4 µM (inactive). The GI50 (NCI-H226) was 49.7 µM (inactive), the GI50 (NCI-H23) was 34.6 µM (inactive) and the GI50 (NCI-H522) was 25.2 µM (inactive). For the same compound, the GI50 (NCI/ADR-RES) was 30.3 µM (inactive), the GI50 (OVCAR-3) was 16.8 µM (inactive) and the GI50 (OVCAR-4) was 37.3 µM (inactive). For the same compound, the GI50 (OVCAR-5) was 34.3 µM (inactive), the GI50 (OVCAR-8) was 39.3 µM (inactive) and the GI50 (PC-3) was 23.4 µM (inactive). For the same compound, the GI50 (RPMI-8226) was 25.8 µM (inactive), the GI50 (RXF 393) was 19.1 µM (inactive) and the GI50 (SF-268) was 27.4 µM (inactive). For the same compound, the GI50 (SF-295) was 19.4 µM (inactive), the GI50 (SK-MEL-28) was 52.1 µM (inactive) and the GI50 (SK-MEL-2) was 18.4 µM (inactive). For the same compound, the GI50 (SK-MEL-5) was 25.9 µM (inactive), the GI50 (SK-OV-3) was 42.5 µM (inactive) and the GI50 (SN12C) was 22.8 µM (inactive). The GI50 (SNB-19) was 37.3 µM (inactive), the GI50 (SR) was 22 µM (inactive) and the GI50 (SW-620) was 45 µM (inactive). The GI50 (T47D) was 15.8 µM (inactive), the GI50 (TK-10) was 25.8 µM (inactive) and the GI50 (U-251) was 29 µM (inactive). The GI50 (UACC-257) was 25.9 µM (inactive), the GI50 (UACC-62) was 30.5 µM (inactive) and the GI50 (UO-31) was 33 µM (inactive).
